Reference: US12421217B2, “Pyrazine derivative or salt thereof, and use of same” (FUJIFILM Corporation, priority 2019, dated 2025)

How the values were obtained:
recombinant human DHODH = target: T1, recombinant human DHODH (Homo sapiens, UniProt Q02127); assay: Enzyme reaction inhibition test (DHODH enzyme assay, DCIP quenching); type: biochemical; settings: DCIP absorbance 600 nm, 50 minutes, read-out: Enzyme reaction inhibitory effect (IC50)
T1 construct: DHODH, 31-395 aa, Human, His tag, E. coli, ATGP1615; His tag; purchased ATGen Co. Ltd. ATGP1615; host or cells: E. coli
T1 sequence (Q02127 31-395): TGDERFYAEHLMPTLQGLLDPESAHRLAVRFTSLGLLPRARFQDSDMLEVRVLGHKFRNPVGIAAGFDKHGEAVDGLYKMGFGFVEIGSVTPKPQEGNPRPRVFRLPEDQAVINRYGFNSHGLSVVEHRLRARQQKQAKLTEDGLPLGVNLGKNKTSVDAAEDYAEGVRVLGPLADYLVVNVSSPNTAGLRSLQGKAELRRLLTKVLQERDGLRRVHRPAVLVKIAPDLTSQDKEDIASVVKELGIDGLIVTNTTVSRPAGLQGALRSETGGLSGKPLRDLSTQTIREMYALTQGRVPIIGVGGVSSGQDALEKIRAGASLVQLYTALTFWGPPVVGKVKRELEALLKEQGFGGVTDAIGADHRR
Experimental: The DHODH enzyme assay was carried out with reference to “Benjamin Bader, Wolfgang Knecht, Markus Fries, and Monika Loffler. Expression, Purification, and Characterization of Histidine-Tagged Rat and Human Flavoenzyme Dihydroorotate Dehydrogenase. Protein Expression and Purification, 1998, 13, 414-422.”
The DHODH activity was evaluated using an enzyme assay system that is coupled with an assay in which a blue coloring agent 2,6-dichlorophenol indophenol (DCIP, available from MP Biomedicals, LLC, MP150118) is quenched. Purified recombinant human DHODH (DHODH, 31-395 aa, Human, His tag, E. coli, ATGP1615) was purchased from ATGen Co. Ltd. The enzyme assay was carried out in a 384-well plate using a buffer solution containing 100 mmol/L Hepes (available from Dojindo Laboratories, 342-01375), 400 mmol/L NaCl (available from FUJIFILM Wako Pure Chemical Corporation, 191-01665), 10% Glycerol (available from FUJIFILM Wako Pure Chemical Corporation, 075-00616), 0.05% Triton X-100 (available from Sigma-Aldrich Co., LLC, T8787-100ML), 0.2 mmol/L Ubiquinone-10 (available from FUJIFILM Wako Pure Chemical Corporation, 216-00761), 0.1 mmol/L DHO (L-dihydroorotic acid, available from Sigma-Aldrich Co., LLC, D7128), 0.5% DMSO (dimethylsulfoxide, available from FUJIFILM Wako Pure Chemical Corporation, 047-29353), 0.175 μg/mL DHODH, and 0.12 mmol/L DCIP and having a pH adjusted to 8.0 by adding 5 mol/L potassium hydroxide (available from FUJIFILM Wako Pure Chemical Corporation, 168-21815). A test compound with a predetermined concentration was added using Biomek NX (available from Beckman Coulter Inc.), and the enzymatic reaction was started by adding the substrate. The enzyme activity was assessed by measuring the decrease in DCIP absorbance (600 nm) for 50 minutes using an EnVision plate-reading spectrophotometer (available from PerkinElmer, Inc.).
The enzyme reaction inhibition rate at each test compound concentration was determined, and the 50% enzyme reaction inhibition concentration [IC50 (nmol/L)] was calculated using XLfit. Enzyme reaction inhibition rate (%)=(amount of luminescence in test compound-added well)/(amount of luminescence in DMSO-added well)×100
The abbreviations in the table have the following meanings. • A: IC50 value<10 nmol/L • B: 10 nmol/L≤IC50 value<100 nmol/L • C: 100 nmol/L≤IC50 value

[1] = test system: human myeloid leukemia cell line HL60; assay: Cell growth test (Cell Titer Glo); type: cell-based; settings: HL-60, 72 h, HL60 cells, 3 days, read-out: Cell growth inhibitory effect (GI50)
Experimental: The cell growth test was carried out using the human myeloid leukemia cell line HL60 (available from ATCC, CRL-240). As a culture medium of HL60 cells, RPMI 1640 (available from FUJIFILM Wako Pure Chemical Corporation, 189-02025) supplemented with 10% fetal bovine serum (available from Thermo Fisher Scientific, Inc., 10437-028), and 1% penicillin-streptomycin (10,000 U/mL, available from Thermo Fisher Scientific, Inc., 15140-122) was used. HL60 cells were seeded on a 384-well plate (available from Corning Inc., 4588) at a cell density of 1×10^3 cells/20 μL/well. After culturing overnight, 5 μL of the test compound having a predetermined concentration was added, and 3 days later, 25 μL of Cell Titer Glo (registered trademark) Luminescent Cell Viability Assay (available from Promega Corporation, G7573) was added, and then the amount of luminescence was measured using an EnVision plate reader (available from PerkinElmer, Inc.). Since the amount of luminescence is proportional to the intracellular concentration of adenosine triphosphate (ATP), the amount of luminescence was used as an indicator of the number of viable cells. The growth inhibitory concentration for each test compound concentration was calculated by the following expression.
The growth inhibition rate at each test compound concentration was determined, and the 50% growth inhibitory concentration [GI50 (nmol/L)] was calculated using XLfit. Growth inhibition rate (%)=(amount of luminescence in test compound-added well)/(amount of luminescence in DMSO-added well)×100
The abbreviations in the table have the following meanings. • A: GI50 value<100 nmol/L • B: 100 nmol/L≤GI50 value<1,000 nmol/L • C: 1,000 nmol/L≤GI50 value

[2] = test system: human acute myeloid leukemia cell line HL60; assay: In vivo drug efficacy test in cancer-bearing mouse model with subcutaneous transplantation of HL60; settings: NOD/scid mice, oral 10 to 30 mg/kg once daily for 10 days
Experimental: (Drug Efficacy Test in Cancer-Bearing Mouse Model with Subcutaneous Transplantation of HL60)
The human acute myeloid leukemia cell line HL60 (available from JCRB) was suspended in a mixture of RPMI-1640 medium and Matrigel (available from Corning Inc.), and then subcutaneously transplanted into 6-week-old female NOD/scid mice (available from CLEA Japan, Inc.). After confirming that the average tumor volume exceeded 200 mm^3, the test compound was dissolved in a solvent (1 equivalent sodium hydroxide solution) and orally administered to mice at a dose of 10 to 30 mg/kg once daily for 10 days. As a negative control, a solvent-administered group to which a 10 to 12 mmol/L sodium hydroxide solution was administered was provided. The tumor diameter was measured over time and the tumor volume was calculated. The tumor volume was calculated by measuring the major axis and the minor axis of the tumor and using the following expression. Tumor volume (mm^3)=[major axis (mm)×minor axis (mm)×minor axis (mm)]/2
T/C (%) was calculated from the average tumor volume of each group by the following expression, and the drug efficacy was evaluated. T/C (%)=(average tumor volume of drug-administered group)/(average tumor volume of solvent-administered group)×100%

IC50 (recombinant human DHODH)	GI50 [1]	Compound	tumor growth inhibition rate (T/C) [2]
< 10 nM	< 100 nM	C[C@H](Oc1c(Nc2ncc(C3CC3)nc2C(=O)O)cccc1C1CCOCC1)C(F)(F)F [Example 10, (S)-6-cyclopropyl-3-((3-(tetrahydro-2H-pyran-4-yl)-2-((1,1,1-trifluoropropan-2-yl)oxy)phenyl)amino)pyrazine-2-carboxylic acid]	excellent tumor growth inhibition rate
10 to 100 nM	< 100 nM	CCCc1c(Nc2ncc(C3CC3)nc2C(=O)O)cccc1C1CCOCC1 [Example 13, 6-cyclopropyl-3-((2-propyl-3-(tetrahydro-2H-pyran-4-yl)phenyl)amino)pyrazine-2-carboxylic acid]	excellent tumor growth inhibition rate
< 10 nM	< 100 nM	O=C(O)c1nc(C2CC2)cnc1Nc1cccc(C2=CCOCC2)c1OCC(F)(F)F [Example 2, 6-cyclopropyl-3-((3-(3,6-dihydro-2H-pyran-4-yl)-2-(2,2,2-trifluoroethoxy)phenyl)amino)pyrazine-2-carboxylic acid]	excellent tumor growth inhibition rate
< 10 nM	< 100 nM	C[C@H](Oc1c(Nc2ncc(C3CC3)nc2C(=O)O)cccc1C1=CCOCC1)C(F)(F)F [Example 8, (S)-6-cyclopropyl-3-((3-(3,6-dihydro-2H-pyran-4-yl)-2-((1,1,1-trifluoropropan-2-yl)oxy)phenyl)amino)pyrazine-2-carboxylic acid]	excellent tumor growth inhibition rate
< 10 nM	< 100 nM	O=C(O)c1nc(C2CC2)cnc1Nc1cccc(C2CCOCC2)c1OCC(F)(F)F [Example 4, 6-cyclopropyl-3-((3-(tetrahydro-2H-pyran-4-yl)-2-(2,2,2-trifluoroethoxy)phenyl)amino)pyrazine-2-carboxylic acid]	excellent tumor growth inhibition rate
